Source: publication PMC8042122 (Scientific Reports, 2021)
“Also recorded” adds a separate entry of the source. Like-named read-outs stand apart in the source and are kept apart here. No end group written: not given here.

Key:
[1] = system: F. graminearum CBS185.32 strain; format: cell-based, Fusarium graminearum
[2] = system: F. graminearum CBS185.32 strain; format: cell-based, Fusarium graminearum; remark: listed apart in the source
[3] = system: F. graminearum CBS185.32 strain; format: cell-based, Fusarium graminearum; remark: listed apart in the source
[4] = system: F. graminearum strain 8/1; conditions: cited from earlier work
bacterial growth = conditions: cited from earlier work

Row | Substance | Effect on fungal growth (dry fungal biomass weight) [1] | DON production ([2]; 50 µM) | 15-ADON production ([3]; 50 µM) | Effect on fungal growth (fungal biomass weight) ([1]; 50 µM) | also measured
1 | CGNFLKRTCICVKK (disulfide (positions not given here)) [TC3Ox] | reduced effect | significantly decreased | significantly decreased |  | DON production ([2]; 25 µM): significantly decreased; 15-ADON production ([3]; 25 µM): significantly decreased
2 | CGNFLKRTCICVKK [TC3, γ-core of the Ixodes ricinus defensin DefMT3, reduced (linear) form] | significant dose-dependent inhibition | trace amounts; also recorded: abrogated | trace amounts; also recorded: abrogated |  | Reduction of fungal growth (fold) ([1]; 50 µM): 1.8 times; DON production ([2]; 12.5 µM): non-significant reduction; DON production ([2]; 25 µM): trace amounts; 15-ADON production ([3]; 12.5 µM): non-significant reduction; 15-ADON production ([3]; 25 µM): trace amounts; Effect on germination [4]: decrease germination; Effect on bacterial growth (bacterial growth): little or no effect
3 | CGNFLKRTCICVKT [TC3-K14T, TC3 with Lys 14 substituted by Thr] | no effect |  |  |  | 
4 | CGNFLKRTC(CH3)ICVKK [TC3-CH3-2, TC3 with Cys9 capped with a methyl group] |  |  |  | significantly less effect | 
5 | CGNFLKRTCIC(CH3)VKK [TC3-CH3-3, TC3 with Cys11 capped with a methyl group] |  |  |  | significantly less effect | 
6 | C(CH3)GNFLKRTCICVKK [TC3-CH3-1, TC3 with Cys1 capped with a methyl group] |  | reduction | reduction | significantly less effect | Reduction of 15-ADON production ([3]; 50 µM): about 33%
7 | C(CH3)GNFLKRTC(CH3)IC(CH3)VKK [TC3-CH3-123, TC3 with all Cys capped with CH3 groups] |  | significantly more | significantly more |  | 
8 | CGNFLKRTCIC(CH3)VKK (disulfide) [TC3-CH3-3Ox, TC3-CH3-3 oxidized, cyclized through the non-capped Cys] |  |  |  | significantly less effect | 
9 | C(CH3)GNFLKRTCICVKK (disulfide) [TC3-CH3-1Ox, TC3-CH3-1 oxidized, cyclized through the non-capped Cys] |  | reduction | reduction | significantly less effect | Reduction of 15-ADON production ([3]; 50 µM): about 42%
10 | CGNFLKRTC(CH3)ICVKK (disulfide) [TC3-CH3-2Ox, TC3-CH3-2 oxidized, cyclized through the non-capped Cys] |  |  |  | significantly less effect | 
